From US9795593B2, “Use of 3-(3-[1,2,4]-triazolo)-oxatriazolium-5-olate for treating sexual disorders” (LIMITED LIABILITY COMPANY “KONSORTSIUM-PIK”, priority 2014, dated 2017)
Marks after values point to notes of the source that are not given here.

Columns and labels:
[1] = tested on: purified sGC obtained of the rabbit's lungs; conditions: AS-6 100 mcmol/L, in vitro; cited from earlier work
endothelin-1 (ET-1) = test: Serum endothelin-1 (ELISA) in the model of arterial hypertension with endothelial dysfunction; assay type: in vivo, rat; conditions: for ET-1: rat serum at the end of experiment, M ± m, n = 8
Procedure: (§1) In the model of arterial hypertension with endothelial dysfunction, endothelial NOS blocker N-nitro-L-arginine methyl ester (L-NAME) was administered intraperitoneally, 25 mg/kg, daily, for 7 days. The blocker was administered in 3% sodium chloride in the dose 1 ml/100 g of body weight. This combination of NO-synthase inhibitor with hypertonic solution provides RAAS activation, aldosterone discharge, retention of sodium and water, functional impairment of the vascular endothelium.
(§2) The animals were divided into the arms as follows: 1—intact animals; 2—control group, males (L-NAME+NaCl; physiological saline as placebo); 3—male rats that received AS-6 in the dose 0.5 mg/kg (Dose 1); 4—male rats that received AS-6 in the dose 5 mg/kg (Dose 2); 5—male rats that received AS-6 in the dose 10 mg/kg (Dose 3); 6—virgin female rats (only in the assessment of the sexual activity). Each group included 8 animals.
(§3) Biochemical parameters were assessed with the use of prearranged kits (USCN Life Science Inc., USA, Bender MedSystems GmbH, Austria, R&D Systems, USA). The measurement was performed with the use of multifunctional photometer Synergy-2 (BioTek Instruments, Inc., USA). All studies were conducted in compliance with current laboratory regulations.
(§4) The assessment of endothelin-1, vascular endothelial growth factor and nitric oxide levels was performed in the rats' serum at the end of experiment with the use of immuno-enzyme analysis and spectrophotometric analysis with species-specific (rat-specific) antibodies.
Quantitative measurement of endothelin-1 (ET-1) was performed with the use of ELISA with USCN Life Science Inc. (USA) kits. Serum samples of the experimental animals (50 mcL) and standards of known concentrations were introduced into the plate wells. Then, 50 mcL of detecting solution (reagent A) were introduced. After 1-hour incubation at 37° C., the wells were 3-fold rinsed, and 100 mcL of detecting solution (reagent B) were introduced into each well. Thereafter, the plate was incubated again at 37° C. for 30 minutes. The plate was rinsed with washing buffer 5 times, and 90 mcL of TMB substrate were introduced into each well. After 15-minute incubation at 37° C., 50 mcL of stop-solution were added. The reaction was read at 450 nm.

[2] = tested on: vascular endothelial growth factor (VEGF); test: Serum vascular endothelial growth factor (ELISA) in the model of arterial hypertension with endothelial dysfunction; assay type: in vivo, rat; conditions: for VEGF: rat serum at the end of experiment, M ± m, n = 8
Procedure: as §1, §2, §3, §4
Quantitative measurement of vascular endothelial growth factor (VEGF) was performed with the use of ELISA with Bender MedSystems GmbH (Austria) kits. Calibration solution 100 mcL, serum samples of the experimental animals (50 mcL) and sample diluent (50 mcL) were introduced into the plate wells. Then, 50 mcL of biotin conjugate were added. After 2-hour incubation at 20° C., the wells were 6 time rinsed, and 100 mcL of streptavidin/horseradish peroxidase conjugate were introduced into each well. Thereafter, the plate was incubated again at 37° C. for 1 hour. The plate was 6 times rinsed with washing buffer, and 100 mcL of TMB substrate were introduced into each well. After 30-minute incubation at 20° C., 100 mcL of stop-solution were added. The reaction was read at 450 and 620 nm.

[3] = tested on: sexual behaviour in male rats; test: Sexual activity of male rats with a receptive female, 30-minute observation after the treatment cycle; assay type: in vivo, rat; set-up: key to Ejaculation rate / Muzzling, licking of the females: + - present; − - absent; conditions: for Intromission rate / Mounting rate: 30-minute period; for Intromission rate / Mounting rate / Intersession interval / Mounting latency: M ± m; for Intromission rate / Mounting rate / Intersession interval / Mounting latency / Ejaculation rate / Muzzling, licking of the females: n = 8
Procedure: as §1, §2
Testing of the animals' sexual activity was performed after the end of treatment cycle. Tested male was placed into the testing chamber (40×40×30 cm), 5 minutes before the presentation of sexually receptive female rat. One female was placed next to each male. The assessment of sexual behaviour was performed in the dark room at blind red light. The components of sexual activity were visually recorded during a 30-minute period: mounting latency (ML—interval from the female placing into the cage to the first male mounting) and the rate of mountings, intromissions and ejaculations.

nitric oxide (NO) = test: Serum unbound nitric oxide (spectrophotometry, Griss reagent) in the model of arterial hypertension with endothelial dysfunction; assay type: in vivo, rat; conditions: for NO: rat serum at the end of experiment, M ± m, n = 8
Procedure: as §1, §2, §3, §4
Quantitative measurement of unbound nitric oxide was performed with the use spectrophotometry with R&D Systems kits (USA). The proteins were precipitated with zinc sulphate/sodium hydroxide. Serum supernatant samples of the experimental animals (50 mcL) and standards of known concentrations were introduced into the plate wells. Then, 50 mcL of sample diluent, Griss reagent 1 and Griss reagent 2 were added. The reaction was read at 540 and 690 nm after 10-minute incubation at 37° C.

sGC in the aortic tissue = conditions: aorta of Wistar rats; cited from earlier work
[4] = tested on: conscious SHR and Wistar rats; conditions: cited from earlier work

Which “sGC activation compared to the basal activity” value [1] does the source give for `[O-]c1n[n+](-c2nc[nH]n2)no1` [AS-6, 3-(3-[1,2,4]-triazolo)-oxatriazolium-5-olate] here?
Its value is “up to 30 fold”.

And the “effect on endothelin-1 levels” value (endothelin-1 (ET-1); most significant at 10 mg/kg, p=0.010 vs. control)?
The value was “significant favourable changes of endothelin-1 levels”.

What about the ET-1 (endothelin-1 (ET-1); AS-6 0.5 mg/kg) of the same compound?
Its ET-1 is 2.48 ± 0.50 pg/mL.

And the ET-1 (endothelin-1 (ET-1); AS-6 5.0 mg/kg)?
Its ET-1 is 1.75 ± 0.48 pg/mL.

What about the ET-1 (endothelin-1 (ET-1); AS-6 10.0 mg/kg) of the same compound?
The ET-1 was 0.78 ± 0.29 pg/mL.

What about the “effect on vascular endothelial growth factor production” value ([2]; 10 mg/kg dose: p=0.116 vs. control) of the same compound?
The value was “dose-dependent trend to the normalization of vascular endothelial growth factor production”.

And the VEGF ([2]; AS-6 0.5 mg/kg)?
The VEGF was 46.01 ± 2.42 pg/mL.

What about the VEGF ([2]; AS-6 5.0 mg/kg) of the same compound?
Its VEGF is 79.49 ± 19.75 pg/mL.

What about the VEGF ([2]; AS-6 10.0 mg/kg) of the same compound?
Its VEGF is 91.95 ± 21.84 pg/mL.

What about the “increase of number of animals with intromissions vs. control” value ([3]; AS-6 10 mg/kg) of the same compound?
The value was 4 fold.

And the “number of animals with intromissions” value ([3]; AS-6 10 mg/kg)?
Its value is 50%.

What about the “animals with increased mounting rate vs. control” value ([3]; AS-6 0.5 and 5 mg/kg) of the same compound?
The value was 40%.

And the “decrease of ML (mounting latency)” value ([3]; AS-6 0.5 and 5 mg/kg)?
The value was 1.5 fold.

What about the “number of animals with intromissions” value ([3]; AS-6 0.5 and 5 mg/kg) of the same compound?
Its value is 25%.

And the “rats with increased intromission rate” value ([3]; AS-6 0.5 and 5 mg/kg)?
Its value is 25%.

What about the Intromission rate ([3]; Azasidnon 0.5 mg/kg) of the same compound?
The Intromission rate was 1.6 ± 1.4.

And the Mounting rate ([3]; Azasidnon 0.5 mg/kg)?
The Mounting rate was 6.6 ± 2.8.

What about the Intersession interval ([3]; Azasidnon 0.5 mg/kg) of the same compound?
Its Intersession interval is 8.8 ± 0.9 min.

And the Mounting latency ([3]; Azasidnon 0.5 mg/kg)?
Its Mounting latency is 3.9 ± 0.9*^ min.

And the Ejaculation rate ([3]; Azasidnon 0.5 mg/kg)?
Its Ejaculation rate is “−”.

And the “Muzzling, licking of the females” value ([3]; Azasidnon 0.5 mg/kg)?
Its value is “+”.

And the Intromission rate ([3]; Azasidnon 5.0 mg/kg)?
The Intromission rate was 1.4 ± 1.1.

And the Mounting rate ([3]; Azasidnon 5.0 mg/kg)?
The Mounting rate was 7.4 ± 3.1.

What about the Intersession interval ([3]; Azasidnon 5.0 mg/kg) of the same compound?
The Intersession interval was 10.2 ± 2.2 min.

And the Mounting latency ([3]; Azasidnon 5.0 mg/kg)?
Its Mounting latency is 4.2 ± 1.9*^ min.

What about the Ejaculation rate ([3]; Azasidnon 5.0 mg/kg) of the same compound?
The Ejaculation rate was “−”.

And the “Muzzling, licking of the females” value ([3]; Azasidnon 5.0 mg/kg)?
The value was “+”.

What about the Intromission rate ([3]; Azasidnon 10.0 mg/kg) of the same compound?
The Intromission rate was 3.1 ± 1.5.

And the Mounting rate ([3]; Azasidnon 10.0 mg/kg)?
The Mounting rate was 8.6 ± 2.6.

What about the Intersession interval ([3]; Azasidnon 10.0 mg/kg) of the same compound?
Its Intersession interval is 7.5 ± 1.9 min.

And the Mounting latency ([3]; Azasidnon 10.0 mg/kg)?
The Mounting latency was 3.2 ± 1.4*^ min.

And the Ejaculation rate ([3]; Azasidnon 10.0 mg/kg)?
The Ejaculation rate was “−”.

And the “Muzzling, licking of the females” value ([3]; Azasidnon 10.0 mg/kg)?
Its value is “+”.

And the “influence on ejaculation” value ([3]; all doses)?
Its value is “did not influence”.

What about the “effect on nitric oxide (NO) production” value (nitric oxide (NO); exceeded the level of treatment-naive animals at 10 mg/kg) of the same compound?
The value was “dose-dependent increase of nitric oxide (NO) production”.

What about the NO (nitric oxide (NO); AS-6 0.5 mg/kg) of the same compound?
Its NO is 8.83 ± 1.06 mcmol/l.

And the NO (nitric oxide (NO); AS-6 5.0 mg/kg)?
Its NO is 10.75 ± 0.55^ mcmol/l.

And the NO (nitric oxide (NO); AS-6 10.0 mg/kg)?
Its NO is 14.08 ± 1.25*^ mcmol/l.

What about the “activation of cGMP synthesis compared to baseline” value (sGC in the aortic tissue) of the same compound?
The value was “up to 13 fold”.

And the hypotensive effect [4]?
The hypotensive effect was “prolonged hypotensive effect”.
